Measured values reported in patent US20260285846A1, “REV-ERB AGONISTS FOR TH17-MEDIATED INFLAMMATORY DISORDERS” (UNIVERSITY OF FLORID RESEARCH FOUNDATION, iNCORPORATED, priority 2021, published 2026).

target: REV-ERBα LBD (Homo sapiens, UniProt P20393, DEL324-422); assay: biochemical; conditions: FRET assay; 6xHistag-REV-ERBα LBD with FITC-labeled SMRT corepressor peptide; read-out: REVERBα (Agonism of REV-ERBα, EC50)
Outline: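 TR-FRET corepressor recruitment: 4 nM His-tagged human REV-ERBα LBD (residues 281-614 Δ324-422, or 381-579), 1 nM Tb-anti-His antibody and 400 nM FITC-SMRT peptide in pH 7.4 phosphate buffer with DTT; ligands in triplicate, 2 h at 4° C. 520/495 nm ratio fitted to sigmoidal dose-response for EC50.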

REV-ERBα LBD, sequence (P20393 with tags, fused parts or gaps DEL324-422): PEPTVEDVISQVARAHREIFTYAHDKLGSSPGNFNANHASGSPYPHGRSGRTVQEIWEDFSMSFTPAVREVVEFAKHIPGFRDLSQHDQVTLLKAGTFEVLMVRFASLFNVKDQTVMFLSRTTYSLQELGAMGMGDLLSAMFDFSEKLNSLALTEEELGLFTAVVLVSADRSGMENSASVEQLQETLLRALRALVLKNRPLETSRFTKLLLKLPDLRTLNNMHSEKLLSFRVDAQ
REV-ERBα LBD, sequence (Q9Y618 2335-2356 partner limits assumed): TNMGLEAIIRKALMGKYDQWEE

Row | Compound | EC50
1 | CC(C)(C)Cn1cc([C@H](NS(=O)(=O)C2CC2)C(F)(F)F)c2cc(F)c(-c3ncccc3C#N)cc21 [Compound 10, (S)—N-(1-(6-(3-cyanopyridin-2-yl)-5-fluoro-1-neopentyl-1H-indol-3-yl)-2,2,2-trifluoroethyl)cyclopropanesulfonamide] | 100 to 1000 nM
2 | O=S(=O)(N[C@@H](c1cn(C2COC2)c2cc(-c3ccc(F)cc3C(F)(F)F)c(F)cc12)C(F)F)C1CC1 [Compound 176, (S)—N-(2,2-difluoro-1-(5-fluoro-6-(4-fluoro-2-(trifluoromethyl)phenyl)-1-(oxetan-3-yl)-1H-indol-3-yl)ethyl)cyclopropanesulfonamide] | 100 to 1000 nM
3 | CC(C)(C)Cn1cc([C@H](NS(=O)(=O)C2CC2)C(F)F)c2ccc(-c3c(C#N)ccnc3C(F)(F)F)cc21 [Compound 52, (S)—N-(1-(6-(4-cyano-2-(trifluoromethyl)pyridin-3-yl)-1-neopentyl-1H-indol-3-yl)-2,2-difluoroethyl)cyclopropanesulfonamide] | 100 to 1000 nM
4 | CC(C)(C)Cn1cc([C@H](NS(=O)(=O)C2CC2)C(F)(F)F)c2ccc(-c3ccccc3C#N)nc21 [Compound 1, (S)—N-(1-(6-(2-cyanophenyl)-1-neopentyl-1H-pyrrolo[2,3-b]pyridin-3-yl)-2,2,2-trifluoroethyl)cyclopropanesulfonamide] | 100 to 1000 nM
5 | CC(C)(C)Cn1cc([C@H](NS(=O)(=O)C2CC2)C(F)(F)F)c2cc(F)c(-c3ccccc3OC(F)(F)F)cc21 [Compound 5, (S)—N-(2,2,2-trifluoro-1-(5-fluoro-1-neopentyl-6-(2-(trifluoromethoxy)phenyl)-H-indol-3-yl)ethyl)cyclopropanesulfonamide] | < 100 nM
6 | CC(NS(=O)(=O)C1CC1)c1cn(CC(C)(C)C)c2cc(-c3ncc(F)cc3Cl)c(F)cc12 (centres unmarked) [Compound 62, N-(1-(6-(3-chloro-5-fluoropyridin-2-yl)-5-fluoro-1-neopentyl-1H-indol-3-yl)ethyl)cyclopropanesulfonamide] | < 100 nM
7 | N#CC1CC(n2cc([C@H](NS(=O)(=O)C3CC3)C(F)F)c3cc(F)c(-c4cc(F)cnc4C(F)(F)F)cc32)C1 (stereo partly drawn) [Compound 151, (S)—N-(1-(1-(3-cyanocyclobutyl)-5-fluoro-6-(5-fluoro-2-(trifluoromethyl)pyridin-3-yl)-1H-indol-3-yl)-2,2-difluoroethyl)cyclopropanesulfonamide] | < 100 nM
8 | N#Cc1nccc(C(F)F)c1-c1cc2c(cc1F)c([C@H](NS(=O)(=O)C1CC1)C(F)F)cn2C1CCC1 [Compound 161, N-((1S)-1-(6-(2-cyano-4-(difluoromethyl)pyridin-3-yl)-1-cyclobutyl-5-fluoro-1H-indol-3-yl)-2,2-difluoroethyl)cyclopropanesulfonamide] | < 100 nM
9 | CC(NS(=O)(=O)C1CC1)c1cn(CC(C)(C)C)c2cc(-c3ncccc3OC(F)F)c(F)cc12 (centres unmarked) [Compound 61, N-(1-(6-(3-(difluoromethoxy)pyridin-2-yl)-5-fluoro-1-neopentyl-1H-indol-3-yl)ethyl)cyclopropanesulfonamide] | < 100 nM
10 | Cc1cnc(C(F)(F)F)c(-c2nc3c(cc2F)c([C@H](NS(=O)(=O)C2CC2)C(F)F)cn3C2CCC2)c1 [Compound 157, (S)—N-(1-(1-cyclobutyl-5-fluoro-6-(5-methyl-2-(trifluoromethyl)pyridin-3-yl)-1H-pyrrolo[2,3-b]pyridin-3-yl)-2,2-difluoroethyl)cyclopropanesulfonamide] | < 100 nM
11 | CC(NS(=O)(=O)C1CC1)c1cn(CC(C)(C)C)c2cc(-c3ncccc3C(F)(F)F)c(F)cc12 (single isomer, unassigned) [Compound 17, (R or S)—N-(1-(5-fluoro-1-neopentyl-6-(3-(trifluoromethyl)pyridine-2-yl)-1H-indol-3-yl)ethyl)cyclopropane sulfonamide] | 100 to 1000 nM
12 | CC(C)(C)Cn1cc([C@H](NS(=O)(=O)C2CC2)C(F)F)c2cc(F)c(-c3c(C(F)(F)F)ccnc3C#N)cc21 [Compound 99, N-((1S)-1-(6-(2-cyano-4-(trifluoromethyl)pyridin-3-yl)-5-fluoro-1-neopentyl-1H-indol-3-yl)-2,2-difluoroethyl)cyclopropanesulfonamide] | < 100 nM

The remaining lines, values ahead:

Row | EC50 | Compound
13 | < 100 nM | CC(C)(C)Cn1cc([C@H](NS(=O)(=O)C2CC2)C(F)F)c2ccc(-c3cncnc3C(F)(F)F)cc21 [Compound 80, (S)—N-(2,2-difluoro-1-(1-neopentyl-6-(4-(trifluoromethyl)pyrimidin-5-yl)-1H-indol-3-yl)ethyl)cyclopropanesulfonamide]
14 | < 100 nM | CC(C)(C)Cn1cc([C@H](NS(=O)(=O)C2CC2)C(F)F)c2cc(F)c(-c3cccnc3C(F)(F)F)nc21 [Compound 145, (S)—N-(2,2-difluoro-1-(5-fluoro-1-neopentyl-6-(2-(trifluoromethyl)pyridin-3-yl)-1H-pyrrolo[2,3-b]pyridin-3-yl)ethyl)cyclopropanesulfonamide]
15 | < 100 nM | CC(C)(C)Cn1cc([C@H](NS(=O)(=O)C2CC2)C(F)F)c2cc(F)c(-c3cc(F)cnc3C(F)(F)F)nc21 [Compound 148, (S)—N-(2,2-difluoro-1-(5-fluoro-6-(5-fluoro-2-(trifluoromethyl)pyridin-3-yl)-1-neopentyl-1H-pyrrolo[2,3-b]pyridin-3-yl)ethyl)cyclopropanesulfonamide]
16 | < 100 nM | Cc1ccncc1-c1cc2c(cc1F)c(C(C)NS(=O)(=O)C1CC1)cn2CC(C)(C)C (centres unmarked) [Compound 71, N-(1-(5-fluoro-6-(4-methylpyridin-3-yl)-1-neopentyl-1H-indol-3-yl)ethyl)cyclopropanesulfonamide]
17 | < 100 nM | CC(C)(C)Cn1cc([C@H](NS(=O)(=O)C2CCC2)C(F)F)c2cc(F)c(-c3c(C#N)cccc3C(F)(F)F)cc21 [Compound 136, N-((1S)-1-(6-(2-cyano-6-(trifluoromethyl)phenyl)-5-fluoro-1-neopentyl-1H-indol-3-yl)-2,2-difluoroethyl)cyclobutanesulfonamide]
18 | < 100 nM | N#Cc1nccc(C(F)(F)F)c1-c1cc2c(cc1F)c([C@H](NS(=O)(=O)C1CC1)C(F)F)cn2C1CCC1 [Compound 159, N-((1S)-1-(6-(2-cyano-4-(trifluoromethyl)pyridin-3-yl)-1-cyclobutyl-5-fluoro-1H-indol-3-yl)-2,2-difluoroethyl)cyclopropanesulfonamide]
19 | < 100 nM | Cc1nccc(C(F)(F)F)c1-c1cc2c(cc1F)c([C@H](NS(=O)(=O)C1CC1)C(F)F)cn2CC(C)(C)C [Compound 130, N-((1S)-2,2-difluoro-1-(5-fluoro-6-(2-methyl-4-(trifluoromethyl)pyridin-3-yl)-1-neopentyl-1H-indol-3-yl)ethyl)cyclopropanesulfonamide]
20 | < 100 nM | CC(C)(C)Cn1cc([C@H](NS(=O)(=O)C2CC(F)C2)C(F)F)c2ccc(-c3ccccc3C(F)(F)F)cc21 (stereo partly drawn) [Compound 22, (S)—N-(2,2-difluoro-1-(1-neopentyl-6-(2-(trifluoromethyl)phenyl)-1H-indol-3-yl)ethyl)-3-fluorocyclobutane-1-sulfonamide]
21 | < 100 nM | CN(C)S(=O)(=O)N[C@@H](c1cn(CC(C)(C)C)c2cc(-c3ccccc3C(F)(F)F)ccc12)C(F)F [Compound 21]
22 | < 100 nM | CC(C)(C)Cn1cc([C@H](NS(=O)(=O)C2CC2)C(F)F)c2cc(F)c(-c3ccc(F)cc3C(F)(F)F)nc21 [Compound 153, (S)—N-(2,2-difluoro-1-(5-fluoro-6-(4-fluoro-2-(trifluoromethyl)phenyl)-1-neopentyl-1H-pyrrolo[2,3-b]pyridin-3-yl)ethyl)cyclopropanesulfonamide]
23 | < 100 nM | CC(C)(C)Cn1cc([C@H](NS(=O)(=O)C2CC2)C(F)(F)F)c2ccc(-c3cc(F)ccc3C(F)(F)F)cc21 [Compound 3, (S)—N-(2,2,2-trifluoro-1-(6-(5-fluoro-2-(trifluoromethyl)phenyl)-1-neopentyl-1H-indol-3-yl)ethyl)cyclopropanesulfonamide]
24 | < 100 nM | CC(NS(=O)(=O)C1CC1)c1cn(CC(C)(C)C)c2cc(-c3ncccc3F)c(F)cc12 (centres unmarked) [Compound 59, N-[1-[1-(2,2-dimethylpropyl)-5-fluoro-6-(3-fluoro-2-pyridyl)indol-3-yl]ethyl]cyclopropanesulfonamide]
25 | < 100 nM | CC(C)(C)Cn1cc([C@H](NS(=O)(=O)C2CC2)C(F)F)c2cc(F)c(-c3c(C#N)ccnc3C(F)(F)F)cc21 [Compound 55, N-((1S)-1-(6-(4-cyano-2-(trifluoromethyl)pyridin-3-yl)-5-fluoro-1-neopentyl-1H-indol-3-yl)-2,2-difluoroethyl)cyclopropanesulfonamide]
26 | < 100 nM | CC(NS(=O)(=O)C1CC1)c1cn(CC(C)(C)C)c2cc(-c3cc(F)cnc3C#N)c(F)cc12 (centres unmarked) [Compound 67, N-(1-(6-(2-cyano-5-fluoropyridin-3-yl)-5-fluoro-1-neopentyl-1H-indol-3-yl)ethyl)cyclopropanesulfonamide]
27 | < 100 nM | CC(C)(C)Cn1cc([C@H](NS(=O)(=O)C2CC2)C(F)F)c2ccc(-c3nccnc3C(F)(F)F)cc21 [Compound 47, (S)—N-(2,2-difluoro-1-(1-neopentyl-6-(3-(trifluoromethyl)pyrazin-2-yl)-1H-indol-3-yl)ethyl)cyclopropanesulfonamide]
28 | < 100 nM | CC(C)(C)Cn1cc([C@H](NS(=O)(=O)C2CC2)C(F)F)c2ccc(-c3c(C(F)(F)F)ccnc3C#N)cc21 [Compound 82, (S)—N-(1-(6-(2-cyano-4-(trifluoromethyl)pyridin-3-yl)-1-neopentyl-1H-indol-3-yl)-2,2-difluoroethyl)cyclopropanesulfonamide]
29 | < 100 nM | Cc1cnc(C(F)(F)F)c(-c2cc3c(cc2F)c([C@H](NS(=O)(=O)C2CC2)C(F)F)cn3CC(C)(C)C)c1 [Compound 141, (S)—N-(2,2-difluoro-1-(5-fluoro-6-(5-methyl-2-(trifluoromethyl)pyridin-3-yl)-1-neopentyl-1H-indol-3-yl)ethyl)cyclopropanesulfonamide]
